# Data as given in the OPERA property sets (Mansouri et al. 2018).
# Conditions: not given
row,SMILES,solubility [mM]
1,Cc1cc(C)c(C)c(C)n1,49.3
2,CCOC(CC(C)O)OCC (stereo not given),1230
3,Cn1c(C(N)=O)c(C(N)=O)c2ccccc21,15.2
4,COc1ccc(NC(=N)Nc2ccc(OC)cc2)cc1,1.84
5,CC12CCC(CC1=O)C(C)(C)O2 (stereo not given),119
6,CCC(CC)(C(N)=O)C(N)=O,63.2
7,CCC1OCCO1,1960
8,O=C(O)CCCNC(=O)c1ccccc1,62.7
9,CCC(CC)(S(=O)(=O)CC)S(=O)(=O)CC,8.66
10,CCC(NC(=N)N)C(=O)O (stereo not given),138
11,O=C(c1cc([N+](=O)[O-])cc([N+](=O)[O-])c1)N(O)c1ccccc1,0.231
12,NNC(=O)[C@H](O)[C@@H](O)[C@H](O)[C@H](O)CO,317
13,CCCCOCCOC(N)=O,310
14,CCOC(=O)[C@H](C)NC(=O)CCl,345
15,O=C(c1ccccc1)N(O)c1cccc2ccccc12,0.494
16,CCCc1cc(F)ccc1O,13
17,N#CC1CCCC1=O (stereo not given),440
18,CCCCOCCOCCOC(N)=O,487
19,Cn1c(=O)[nH]n(-c2ccccc2)c1=O,1.05
20,O=C(O)C(=O)C(c1ccccc1)c1ccccc1,4.62
21,O=P(O)(O)c1cccc2ccccc12,24
22,CC(C)OC(=O)C(C)(C)O,1030

row,SMILES,solubility [mM]
1,NC(=O)C[C@H](NC(=O)CCl)C(=O)O,479
2,NC(=S)SCC(=O)O,179
3,COCC(=O)c1ccccc1,173
4,O=C(O)C1=CCCc2ccccc21,1.61
5,CCCCOC(=O)CCO,51.3
6,CC(=O)c1ccc(O)c(C(=O)O)c1,5.88
7,CCC(CC)C(=O)N(CC)CC,81.7
8,CC1(C)OC(=O)c2cc3ccccc3cc21,1.04
9,CCOC(OCC)C(C)=O,622
10,CCCC(Br)C(=O)NC(N)=O (stereo not given),37.3
11,O=C(O)/C=C/CBr,182
12,CCC(Cl)(CC)C(N)=O,93.6
13,CCS(=O)(=O)CCSP(=S)(OC)OC,2.87
14,CCCOCC(O)COCCC,454
15,O=S(=O)(CCCl)CCOCCS(=O)(=O)CCCl,11.5
16,CC(=O)OC(C)C#N (stereo not given),1770
17,COC(=O)CCCCCCCCC(=O)OC,0.521
18,NCCc1ccc(O)c([N+](=O)[O-])c1,45.7
19,CC(C)C(Br)C(=O)N[C@@H](C)C(=O)O (mixture of isomers),329
20,NNC(=O)c1nccs1,210
21,O=C(OC1CCNCC1)c1ccccc1,48.7

# Same assay, conditions: 20 °C
row,SMILES,solubility [mM]
1,O=[N+]([O-])c1cccc(CO)c1,3.85
2,ClCCOCOCCCl,45.1
3,CC(O)C(C)Cl (stereo not given),613
4,Cc1ncc2nccnc2n1,760
5,O=C(O)CCCC(C(=O)O)(c1ccccc1)c1ccccc1,0.67
6,O=C(O)c1oc(Cl)c(Cl)c1Cl,6.04
7,Nc1nc(N)nc(Cl)n1,4.12
8,Brc1ccc2c(c1)Sc1ccccc1N2,0.000773
9,NC(N)=N/C(N)=N/c1cccc2ccccc12,4.84
10,O=C(O)C=C(CC(=O)O)C(=O)O,2450
11,CC(C)(OC1CCCCC1)C(=O)O,83.2
12,O=C(O)C(Br)=C(Br)Br,43.7
13,C=CCCN=C=S,4.06
14,O=C1CC(c2ccccc2)CC(=O)C1[N+](=O)[O-] (stereo not given),21.4
15,COC(=O)c1ccc([N+](=O)[O-])cc1C(=O)O,8.79
16,CC=C(CCCC)C(=O)NC(N)=O,1.63
17,CCc1nc2ncnc(O)c2nc1CC,12.2
18,CN1c2ccccc2Sc2ccccc21,0.00255
19,Cc1nc2c(=O)[nH]c(=O)n(C)c2nc1C,7.71
20,Cc1csc(=S)n1CC(=O)O,10.9
21,OCc1ccc(Cl)cc1,17.5
22,O=C(O)c1occ(Cl)c1Cl,14.9
23,O=c1[nH]ccc2cccnc12,72
24,NC1=NC2=NC=NC2C(C(F)(F)F)=N1 (stereo not given),0.733
25,Oc1cc2ccccc2cc1C1=NCCN1,0.499
26,CCCCCCCCOC(=O)c1cc(O)c(O)c(O)c1,0.127

row,SMILES,solubility [mM]
1,COC(=O)c1cc(O)c(OC)c(O)c1,25.2
2,O=[N+]([O-])Cc1ccc2ccccc2n1,8.82
3,O=C(O)c1ccccc1C(=O)c1ccc(Cl)cc1,1.92
4,COc1c(C(=O)O)oc2ccccc12,1.3
5,NNC(=O)c1cccnc1,729
6,CC(C)C1(Br)C(=O)NC(=O)NC1=O,6.18
7,CC(=O)NC(NC(C)=O)c1ccccc1,48.5
8,CCCCC1(CCCC)C(=O)NC(=O)NC1=O,1.33
9,C/C=C\CC1(C/C=C/C)C(=O)NC(=O)NC1=O,6.35
10,CCC(CC)COC(C)=O,44.4
11,Cc1nc(C)c(C(=O)O)cc1C(=O)O,1.55
12,CCCc1nnc(NS(=O)(=O)c2ccc(N)cc2)s1,0.493
13,CCC(CC)(CC)NC(N)=O,15.2
14,CN(C)c1nc2c[nH]cnc-2n1,40.9
15,O=C(O)CC(O)C(=O)O (stereo not given),5790
16,CNc1ncc2nccnc2n1,19.4
17,NNC(N)=S,110
18,CC(C)c1nnc(NS(=O)(=O)c2ccc(N)cc2)s1,0.385
19,O=C(CCCCC(=O)NCCO)NCCO,2580
20,Oc1cccc2ccnnc12,3.9
21,CC1NC(C)SC(C)S1 (stereo not given),42.9
22,O=C1C=CC(=NO)C=C1,28.4
23,O=C(O)c1cc(Br)co1,65.4
24,NC(=O)CBr,1160
25,O=C(O)C1=CCCCC1,55.5
26,CCC(O)C(Cl)(Cl)Cl (stereo not given),113

# Same assay, conditions: 21 °C
row,SMILES,solubility [mM]
1,NC(N)=NCCS(=O)(=O)O,233
2,CCCCOc1cc(C(=O)NCCN(CC)CC)c2ccccc2n1,0.122

# Same assay, conditions: 22 °C
row,SMILES,solubility [mM]
1,COc1cc2nccnc2c(N)c1OC,19.5
2,O=S1(=O)NCc2ccccc21,30.1
3,CC(=O)OCCS,31.6

# Same assay, conditions: 23 °C
row,SMILES,solubility [mM]
1,NC(=O)C[C@H](NC(N)=O)C(=O)O,308
2,O=S(=O)(c1ccccc1O)c1ccccc1O,0.48
3,O=C(O)c1ccccc1C1OC(=O)c2ccccc21 (stereo not given),0.787

# Same assay, conditions: 24 °C
row,SMILES,solubility [mM]
1,O=NC1=C(NO)CCC1,10.1
2,O=Cc1cccc(C(=O)O)c1O,3.61
3,O=C(O)c1ccc(C(=O)O)c(Br)c1,7.35

# Same assay, conditions: 25 °C
row,SMILES,solubility [mM]
1,CCCCCCC(C/C=C\CCCCCCCC(=O)O)OS(=O)(=O)O (stereo not given),264
2,NC(=O)c1cccc(S(N)(=O)=O)c1,6.99
3,CCCCCCOC(=O)CCOCC,1.48
4,CC(C)[C@@H](Br)C(=O)O,78.9
5,NC(C(=O)O)C(O)C(=O)O (stereo not given),149
6,O=P(Oc1ccccc1)(Oc1ccccc1)N1CCOCC1,7.2
7,CCCCN(C(N)=O)c1ccccc1,50.5
8,C#CC#CC=C=CCCO,12.9
9,COc1cc(Br)c2c(c1OC)C(=O)OC2,0.117
10,CC(N)C(O)C(=O)O (stereo not given),443
11,CC(=O)CC(CC(=O)O)c1ccccc1 (stereo not given),35.8
12,CCOc1ccc(C(=O)O)c2ccccc12,0.0772
13,CCOC(=S)SC(C)C(=O)O (stereo not given),35.6
14,Cc1nc2c(c(=O)n(C)c(=O)n2C)n1C,35.5
15,Cc1[nH]c(=O)[nH]c(=O)c1CC(=O)O,4.89
16,CCCS,25
17,O=CNCC(=O)O,1850
18,CCc1c[nH]c(=O)nc1N,95.6
19,CC(=O)OC[C@@H](O)[C@@H](OC(C)=O)[C@H](OC(C)=O)[C@H](C=O)OC(C)=O,44.2
20,Sc1nc2ccccc2o1,6.61
21,CCCCCCCCCCOC(=O)c1cccnc1,0.646
22,OCc1cccc(CO)c1,585
23,O=C(O)c1cc(N=Nc2ccccc2)ccc1O,0.879
24,O=C(O)c1cccc(C(=O)O)c1[N+](=O)[O-],10.2
25,Cn1c(=O)c2[nH]c(Cl)nc2n(C)c1=O,31.1
26,CCC(NC=O)C(=O)O (stereo not given),256

row,SMILES,solubility [mM]
1,O=C(O)c1c(O)ccc2ccccc12,0.744
2,Cc1cc(C)c([PH](=O)O)c(C)c1,1.62
3,O=C1OCc2ccc(Br)cc21,2.25
4,CCCC(=O)Oc1ccc([N+](=O)[O-])cc1,0.115
5,CNC(CC(C)C)C(=O)O (stereo in doubt),306
6,CCC(O)CCC(C)C (stereo not given),11.8
7,CC(=O)Nc1ccc2c(c1)C(=O)OC2,2.51
8,CCCCCOC(=O)C(C)O (stereo not given),62.4
9,COc1ccc(C(=O)CCC(=O)O)cc1,86.5
10,CC(=O)OOC(=O)c1ccccc1,3.55
11,O=C(O)CCCCCCNS(=O)(=O)c1ccccc1,8.97
12,Oc1nc2ccccc2nc1O,1.54
13,CCC1(C)OC(=O)NC1=O (stereo not given),1050
14,O=C(O)c1ccc2ccccc2n1,81.1
15,CCCCCCCCOC(=O)C(C)O (stereo not given),53.4
16,O=C(O)C(=O)Nc1ccc(Cl)cc1Cl,5.29
17,CCC(CC)(C(=O)O)C(CC)(CC)C(=O)O,1.09
18,CCCCOP(=O)(CCCC)OCCCC,2
19,CCCC(=O)N(C)N=O,29.2
20,CCCCOC(=O)c1cccnc1,14.6
21,Cc1cccc(CO)c1,409
22,CCNCNC(=O)c1ccccc1,842
23,O=C(O)Cc1cc(O)ccc1O,5050
24,Oc1c(Cl)cc(Cl)cc1Cc1ccccc1,0.0229
25,CCCCC(=O)NCCNC(=O)CCCC,15.3

# Same assay, conditions: 26 °C
row,SMILES,solubility [mM]
1,C=CCc1ccc(O)c(O)c1,166
2,Cc1ccc(C)c(C)n1,257

# Same assay, conditions: 27 °C
row,SMILES,solubility [mM]
1,Cc1c2c(cc3c1ccc1ccccc13)CCCC2,0.000179

# Same assay, conditions: 30 °C
row,SMILES,solubility [mM]
1,CCc1cccc(C)n1,150
2,CCCOC(=O)CO[N+](=O)[O-],11
3,CCCCCOC(=O)c1ccc(O)cc1,0.154
4,CCCCCCCOC(=O)c1ccc(O)cc1,0.0846
5,O=C(O)CCCCCc1ccccc1,2.5
6,CC(=O)c1cccs1,111
7,CCCOC(=O)c1ccc(O)c(I)c1,0.206
8,CCCCOC(=O)c1ccc(O)c(I)c1,0.125
9,CCN(CC)C(C#N)c1ccccc1 (stereo not given),106
10,CCc1ccccc1NC(C)=O,25.7
